Assay results from US5672715A, “Herbicidal substituted 3-aryl-pyrazoles” (Monsanto Company, priority 1995, dated 1997).

Tests used:
Type in all cases: in vivo
[1] = tested on: Corn; test: pre-emergence herbicide test
How it was run: (§1)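 Herbicidal effect was assessed as percent inhibition about 14 days after sowing. A known amount of compound was added to the covering topsoil, and the pans were subirrigated in a greenhouse.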

[2] = tested on: Barnyardgrass; test: pre-emergence herbicide test; conditions: Echinochloa crus-galli, pre-emergence, read-out: % plant inhibition
How it was run: as §1

[3] = tested on: Rice; test: pre-emergence herbicide test; conditions: Oryza sativa, read-out: % plant inhibition
How it was run: as §1

[4] = tested on: Cocklebur; test: pre-emergence herbicide test
How it was run: as §1

[5] = tested on: Yellow Foxtail; test: pre-emergence herbicide test; conditions: Setaria, read-out: % plant inhibition
How it was run: as §1

[6] = tested on: Morning Glory; test: pre-emergence herbicide test
How it was run: as §1

[7] = tested on: Soybean; test: pre-emergence herbicide test; conditions: Glycine max, pre-emergence, read-out: % plant inhibition
How it was run: as §1

[8] = tested on: Yellow Nutsedge; test: pre-emergence herbicide test; conditions: Cyperus, read-out: % plant inhibition
How it was run: as §1

[9] = tested on: Velvetleaf; test: pre-emergence herbicide test
How it was run: as §1

[10] = tested on: Common Chickweed; test: post-emergence herbicide test
How it was run: (§2)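 Plants grown in greenhouse soil pans for two to three weeks were sprayed with compound in about 0.4% v/v emulsifier at 170.3 kPa and 1870 L/Ha, at the stated application rates. Activity was scored as percent inhibition of each species.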

[11] = tested on: Bedstraw Catchweed; test: post-emergence herbicide test
How it was run: as §2

[12] = tested on: Barnyardgrass; test: post-emergence herbicide test; conditions: Echinochloa crus-galli, post-emergence, read-out: % plant inhibition
How it was run: as §2

[13] = tested on: Cocklebur; test: post-emergence herbicide test; conditions: Xanthium strumarium, post-emergence, read-out: % plant inhibition
How it was run: as §2

[14] = tested on: Yellow Foxtail; test: post-emergence herbicide test; conditions: Setaria, read-out: % plant inhibition
How it was run: as §2

[15] = tested on: Morning Glory; test: post-emergence herbicide test
How it was run: as §2

[16] = tested on: Yellow Nutsedge; test: post-emergence herbicide test; conditions: Cyperus, read-out: % plant inhibition
How it was run: as §2

Cc1c(-c2cc(F)c([N+](=O)[O-])cc2F)nn(C)c1C(F)(F)F [Compound 35]
55%: inhibition at 5043.82 g/ha ([1]; Zea mays, pre-emergence, 4.5 lb/A, read-out: % plant inhibition) | inhibition at 1000.92 g/ha ([4]; Xanthium strumarium, pre-emergence, 0.893 lb/A, read-out: % plant inhibition) | inhibition at 5043.82 g/ha ([7]; 4.5 lb/A)
5%: % plant inhibition ([1]; 0.1785 lb/A)
98%: % plant inhibition ([9]; 0.893 lb/A)
75%: inhibition at 1000.92 g/ha ([11]; Galium aparine, post-emergence, 0.893 lb/A, read-out: % plant inhibition) | inhibition at 200.072 g/ha ([15]; Ipomoea, post-emergence, 0.1785 lb/A, read-out: % plant inhibition)
40%: inhibition at 1000.92 g/ha ([7]; 0.893 lb/A)
30%: inhibition at 5043.82 g/ha ([8]; 4.5 lb/A)
10%: % plant inhibition ([10]; 0.893 lb/A)
95%: inhibition at 5043.82 g/ha ([2]; 4.5 lb/A) | % plant inhibition ([11]; 0.893 lb/A) | inhibition at 5043.82 g/ha ([15]; Ipomoea, post-emergence, 4.5 lb/A, read-out: % plant inhibition)
100%: inhibition at 1000.92 g/ha ([9]; Abutilon theophrasti, pre-emergence, 0.893 lb/A, read-out: % plant inhibition) | inhibition at 5043.82 g/ha ([9]; Abutilon theophrasti, pre-emergence, 4.5 lb/A, read-out: % plant inhibition) | % plant inhibition ([15]; 0.893 lb/A)
65%: inhibition at 5043.82 g/ha ([12]; 4.5 lb/A) | inhibition at 5043.82 g/ha ([14]; 4.5 lb/A) | inhibition ([15]; Ipomoea, post-emergence, 0.1725 lb/A, read-out: % plant inhibition)
0%: inhibition at 40.0143 g/ha ([1]; Zea mays, pre-emergence, 0.0357 lb/A, read-out: % plant inhibition) | inhibition at 40.0143 g/ha ([2]; 0.0357 lb/A) | inhibition at 200.072 g/ha ([2]; 0.1785 lb/A) | inhibition at 40.0143 g/ha ([3]; 0.0357 lb/A) | inhibition at 5043.82 g/ha ([3]; 4.5 lb/A) | inhibition at 40.0143 g/ha ([4]; Xanthium strumarium, pre-emergence, 0.0357 lb/A, read-out: % plant inhibition) | inhibition at 40.0143 g/ha ([5]; 0.0357 lb/A) | inhibition at 200.072 g/ha ([5]; 0.1785 lb/A) | inhibition at 40.0143 g/ha ([6]; Ipomoea, pre-emergence, 0.0357 lb/A, read-out: % plant inhibition) | inhibition at 40.0143 g/ha ([7]; 0.0357 lb/A) | inhibition at 200.072 g/ha ([7]; 0.1785 lb/A) | inhibition at 40.0143 g/ha ([8]; 0.0357 lb/A) | inhibition at 200.072 g/ha ([8]; 0.1785 lb/A) | inhibition at 40.0143 g/ha ([9]; Abutilon theophrasti, pre-emergence, 0.0357 lb/A, read-out: % plant inhibition) | inhibition at 7.95803 g/ha ([10]; post-emergence, 0.0071 lb/A, read-out: % plant inhibition) | inhibition at 40.0143 g/ha ([10]; post-emergence, 0.0357 lb/A, read-out: % plant inhibition) | inhibition at 200.072 g/ha ([10]; post-emergence, 0.1785 lb/A, read-out: % plant inhibition) | inhibition at 7.95803 g/ha ([11]; Galium aparine, post-emergence, 0.0071 lb/A, read-out: % plant inhibition) | inhibition at 7.95803 g/ha ([12]; 0.0071 lb/A) | inhibition at 40.0143 g/ha ([12]; 0.0357 lb/A) | inhibition at 200.072 g/ha ([12]; 0.1785 lb/A) | inhibition at 7.95803 g/ha ([13]; 0.0071 lb/A) | inhibition at 40.0143 g/ha ([13]; 0.0357 lb/A) | inhibition ([13]; 0.1725 lb/A) | inhibition at 200.072 g/ha ([13]; 0.1785 lb/A) | inhibition at 7.95803 g/ha ([14]; 0.0071 lb/A) | inhibition at 40.0143 g/ha ([14]; 0.0357 lb/A) | inhibition at 7.95803 g/ha ([15]; Ipomoea, post-emergence, 0.0071 lb/A, read-out: % plant inhibition) | inhibition at 40.0143 g/ha ([15]; Ipomoea, post-emergence, 0.0357 lb/A, read-out: % plant inhibition) | inhibition at 7.95803 g/ha ([16]; 0.0071 lb/A) | inhibition at 40.0143 g/ha ([16]; 0.0357 lb/A) | inhibition ([16]; 0.1725 lb/A) | inhibition at 200.072 g/ha ([16]; 0.1785 lb/A) | inhibition at 1000.92 g/ha ([16]; 0.893 lb/A) | inhibition at 5043.82 g/ha ([16]; 4.5 lb/A)
90%: inhibition at 5043.82 g/ha ([4]; Xanthium strumarium, pre-emergence, 4.5 lb/A, read-out: % plant inhibition) | inhibition at 5043.82 g/ha ([13]; 4.5 lb/A)
80%: inhibition at 5043.82 g/ha ([5]; 4.5 lb/A) | % plant inhibition ([6]; 0.893 lb/A)
25%: inhibition at 40.0143 g/ha ([11]; Galium aparine, post-emergence, 0.0357 lb/A, read-out: % plant inhibition)
35%: % plant inhibition ([4]; 0.893 lb/A) | inhibition at 1000.92 g/ha ([5]; 0.893 lb/A) | inhibition at 5043.82 g/ha ([10]; post-emergence, 4.5 lb/A, read-out: % plant inhibition)
20%: inhibition at 200.072 g/ha ([14]; 0.1785 lb/A)
85%: inhibition at 1000.92 g/ha ([6]; Ipomoea, pre-emergence, 0.893 lb/A, read-out: % plant inhibition) | inhibition at 5043.82 g/ha ([6]; Ipomoea, pre-emergence, 4.5 lb/A, read-out: % plant inhibition) | inhibition at 5043.82 g/ha ([11]; Galium aparine, post-emergence, 4.5 lb/A, read-out: % plant inhibition) | inhibition at 1000.92 g/ha ([15]; Ipomoea, post-emergence, 0.893 lb/A, read-out: % plant inhibition)
